Converted amounts (≈) assume the structure as drawn. Each block holds one compound with its values, some of them ahead of it.
Columns and labels:
[1] = molecular target: T1, Dihydroorotate dehydrogenase (quinone), mitochondrial (Homo sapiens, UniProt Q02127); assay: Inhibition of human DHODH using dihydroorotate as substrate and CoQ10 as co-substrate preincubated for 30 mins followed by substrate addition by DCIP coupled microplate reader assay
[2] = Competitive inhibition of Plasmodium falciparum DHODH
[3] = molecular target: T1, Dihydroorotate dehydrogenase (quinone), mitochondrial; assay: Inhibition of recombinant human DHODH expressed in baculovirus infected insect cells using dihydroorotate as substrate and decylubiquinone as co-substrate by 2,6-dichlorophenol-indophenol-coupled spectrophotometric analysis
[4] = system: NAMALVA; assay: Antiproliferative activity against human NAMALWA cells assessed as reduction in cell viability measured after 48 hrs by MTT assay; assay type: functional, cell-based; conditions: Homo sapiens, NAMALVA, 48 h
[5] = system: A-375; assay: Antiproliferative activity against human A375 cells assessed as reduction in cell viability measured after 48 hrs by MTT assay; assay type: functional, cell-based; conditions: Homo sapiens, A-375, 48 h
[6] = system: A549; assay: Antiproliferative activity against human A549 cells assessed as reduction in cell viability measured after 48 hrs by MTT assay; assay type: functional, cell-based; conditions: Homo sapiens, A549, 48 h
[7] = system: MCF7; assay: Antiproliferative activity against human MCF7 cells assessed as reduction in cell viability measured after 48 hrs by MTT assay; assay type: functional, cell-based; conditions: Homo sapiens, MCF7, 48 h
[8] = system: HeLa; assay: Antiproliferative activity against human HeLa cells assessed as reduction in cell viability measured after 48 hrs by MTT assay; assay type: functional, cell-based; conditions: Homo sapiens, HeLa, 48 h
[9] = system: Raji; assay: Antiproliferative activity against human Raji cells assessed as reduction in cell viability measured after 48 hrs by MTT assay; assay type: functional, cell-based; conditions: Homo sapiens, Raji, 48 h
[10] = system: HCT-116; assay: Antiproliferative activity against human HCT116 cells assessed as reduction in cell viability measured after 48 hrs by MTT assay; assay type: functional, cell-based; conditions: Homo sapiens, HCT-116, 48 h
[11] = system: K562; assay: Antiproliferative activity against human K562 cells assessed as reduction in cell viability measured after 48 hrs by MTT assay; assay type: functional, cell-based; conditions: Homo sapiens, K562, 48 h
[12] = Solubility of the compound in PBS; assay type: physicochemical

T1 sequence (Q02127 whole entry): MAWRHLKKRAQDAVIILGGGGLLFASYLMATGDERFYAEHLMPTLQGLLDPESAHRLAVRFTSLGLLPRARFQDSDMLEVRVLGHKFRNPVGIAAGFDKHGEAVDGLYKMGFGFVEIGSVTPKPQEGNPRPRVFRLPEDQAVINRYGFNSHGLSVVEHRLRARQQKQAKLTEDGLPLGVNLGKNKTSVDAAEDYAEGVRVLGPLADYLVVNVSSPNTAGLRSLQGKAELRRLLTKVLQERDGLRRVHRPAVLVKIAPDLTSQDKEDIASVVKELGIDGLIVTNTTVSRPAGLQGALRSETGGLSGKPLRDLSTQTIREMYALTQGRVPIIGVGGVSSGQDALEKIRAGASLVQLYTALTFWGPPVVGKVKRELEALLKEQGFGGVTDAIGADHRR

Structure (SMILES): CC(C)c1ccc(-n2nnc3c2C(=O)c2ccccc2C3=O)cc1
- IC50 [1]: 560 nM

Structure (SMILES): O=C1c2ccccc2C(=O)c2c1nnn2-c1nc2ccccc2[nH]1
- IC50 [1]: > 1000 nM

Structure (SMILES): O=C1C(O)=C([C@H]2CC[C@H](c3ccc(Cl)cc3)CC2)C(=O)c2ccccc21 [ATOVAQUONE]
- Ki [2]: 27 µM

Structure (SMILES): O=C1c2ccccc2C(=O)c2c1nnn2-c1ccc2c(c1)OCO2
- IC50 [1]: > 1000 nM

Structure (SMILES): COc1ccccc1-n1nnc2c1C(=O)c1ccccc1C2=O
- IC50 [1]: > 1000 nM

Structure (SMILES): O=C1C(O)=C(CC=C(Cl)Cl)C(=O)c2ccccc21
- IC50 [3]: 67 nM

Structure (SMILES): CC(C)C1CC(=O)c2nnn(-c3cc(F)c(-c4ccccc4F)c(F)c3)c2C1 (stereo not given)
- IC50 [1]: 520 nM

Structure (SMILES): Nc1cccc(-n2nnc3c2C(=O)c2ccccc2C3=O)c1
- IC50 [1]: > 1000 nM

Structure (SMILES): O=C1c2ccccc2C(=O)c2c1nnn2-c1ccc(Cl)nc1
- IC50 [1]: > 1000 nM

Structure (SMILES): O=C1c2ccccc2C(=O)c2c1nnn2-c1cccc(I)c1
- IC50 [1]: > 1000 nM

Structure (SMILES): CC1(C)CC(=O)c2nnn(-c3cc(F)c(-c4ccccc4F)c(F)c3)c2C1
- IC50 [1]: > 1000 nM

Structure (SMILES): O=C1c2ccccc2C(=O)c2c1nnn2-c1ccc(-c2cncnc2)cc1
- IC50 [1]: > 1000 nM

Structure (SMILES): O=C1c2ccccc2C(=O)c2c1nnn2-c1ccc(-c2cc(C(F)(F)F)cc(C(F)(F)F)c2)cc1
- IC50 [1]: > 1000 nM

Structure (SMILES): O=C(c1ccccc1)c1cn(-c2cc(F)c(-c3ccccc3F)c(F)c2)nn1
- IC50 [1]: > 1000 nM

Structure (SMILES): O=C1c2ccccc2C(=O)c2c1nnn2-c1cccc(O)c1
- IC50 [1]: > 1000 nM

Structure (SMILES): O=C1c2cc(O)ccc2C(=O)c2c1nnn2-c1cc(F)c(-c2ccccc2F)c(F)c1
- IC50 [1]: > 1000 nM

Structure (SMILES): O=C1c2ccccc2C(=O)c2c1nnn2-c1ccc2ccccc2c1
- IC50 [1]: > 1000 nM

Structure (SMILES): COC(=O)c1cccc(-c2ccc(-n3nnc4c3C(=O)c3ccccc3C4=O)cc2)c1
- IC50 [1]: 550 nM

Structure (SMILES): Cc1ccc(-n2nnc3c2C(=O)c2ccccc2C3=O)cc1C(F)(F)F
- IC50 [1]: > 1000 nM

Structure (SMILES): O=C1CCCc2c1nnn2-c1cc(F)c(-c2ccccc2F)c(F)c1
- IC50 [1]: > 1000 nM

Now from value to compound, other results behind:

- IC50 [5]: 5830 nM
- IC50 [6]: > 10 µM
- IC50 [7]: > 10 µM
- IC50 [8]: > 10 µM
- IC50 [9]: 4610 nM
- IC50 [1]: 19 nM
- IC50 [10]: 4230 nM
- IC50 [11]: > 10 µM
Structure (SMILES): O=C1c2ccccc2C(=O)c2c1nnn2-c1ccc(-c2ccccc2)cc1
- IC50 [4]: 1.87 µM

- IC50 [5]: 1900 nM
- IC50 [6]: > 10 µM
- IC50 [7]: > 10 µM
- IC50 [8]: > 10 µM
- IC50 [9]: > 10000 nM
- IC50 [1]: 25 nM
- IC50 [10]: > 10000 nM
- IC50 [11]: 0.24 µM
Structure (SMILES): Nc1ccc(-c2ccc(-n3nnc4c3C(=O)c3ccccc3C4=O)cc2)cc1
- IC50 [4]: > 10 µM

- IC50 [5]: 190 nM
- IC50 [6]: > 10 µM
- solubility [12]: < 10 µg/mL
- IC50 [7]: > 10 µM
- IC50 [8]: > 10 µM
- IC50 [9]: 1510 nM
- IC50 [1]: 2.7 nM
- IC50 [10]: 550 nM
- IC50 [11]: > 10 µM
Structure (SMILES): O=C1c2ccccc2C(=O)c2c1nnn2-c1cc(F)c(-c2cccc(F)c2)c(F)c1
- IC50 [4]: > 10 µM

- IC50 [1]: 76 nM
Structure (SMILES): CC(C)c1ccc(-c2c(F)cc(-n3nnc4c3C(=O)c3ccccc3C4=O)cc2F)cc1

- IC50 [1]: 152 nM
Structure (SMILES): O=C1c2ccc(F)cc2C(=O)c2c1nnn2-c1cc(F)c(-c2ccccc2F)c(F)c1

- IC50 [1]: 56 nM
Structure (SMILES): O=C1c2ccccc2C(=O)c2c1nnn2-c1ccc(-c2cccc(F)c2)cc1

- IC50 [5]: 180 nM
- IC50 [6]: > 10 µM
- solubility [12]: < 10 µg/mL
- IC50 [7]: > 10 µM
- IC50 [8]: > 10 µM
- IC50 [9]: 1230 nM
- IC50 [1]: 1.6 nM
- IC50 [10]: 1130 nM
- IC50 [11]: > 10 µM
Structure (SMILES): COCc1cccc(-c2c(F)cc(-n3nnc4c3C(=O)c3ccccc3C4=O)cc2F)c1
- IC50 [4]: > 10 µM

- IC50 [5]: 10 nM
- IC50 [6]: > 10 µM
- solubility [12]: 15.4 µg/mL (≈ 40.4 µM)
- IC50 [7]: > 10 µM
- IC50 [8]: > 10 µM
- IC50 [9]: 790 nM
- IC50 [1]: 4.1 nM
- IC50 [10]: 180 nM
- IC50 [11]: 0.21 µM
Structure (SMILES): COc1cc(-n2nnc3c2C(=O)c2ccccc2C3=O)ccc1-c1ccccc1
- IC50 [4]: > 10 µM

- IC50 [5]: 1580 nM
- IC50 [6]: > 10 µM
- IC50 [7]: > 10 µM
- IC50 [8]: > 10 µM
- IC50 [9]: > 10000 nM
- IC50 [1]: 6.9 nM
- IC50 [10]: 2250 nM
- IC50 [11]: > 10 µM
Structure (SMILES): O=C1c2ccccc2C(=O)c2c1nnn2-c1cc(F)c(-c2ccc(F)cc2)c(F)c1
- IC50 [4]: > 10 µM

— ChEMBL document CHEMBL4616673 (J Med Chem, 2020)
